{"source": "patent US7807703B2", "about": "“Substituted aryl ketones” (Bayer CropScience AG, priority 2002, dated 2010)", "data": [{"test": "log P determination by reversed-phase HPLC (EEC Directive 79/831 Annex V.A8; acidic or neutral mobile phase)", "assay_type": "physicochemical", "settings": "HPLC reversed-phase C18, 43° C., acidic range: 0.1% aqueous phosphoric acid, acetonitrile (marked a))", "protocol": "(§1) The log P values given in the table were determined in accordance with EEC Directive 79/831 Annex V.A8 by HPLC (High Performance Liquid Chromatography) using a reversed-phase column (C 18). Temperature: 43° C.\n(§2) (a) Mobile phases for the determination in the acidic range: 0.1% aqueous phosphoric acid, acetonitrile; linear gradient from 10% acetonitrile to 90% acetonitrile—the corresponding measurement results are marked a) in Table 1.\n(§3) (b) Mobile phases for the determination in the neutral range: 0.01 molar aqueous phosphate buffer solution, acetonitrile; linear gradient from 10% acetonitrile to 90% acetonitrile—the corresponding measurement results are marked b) in Table 1.", "values": [{"smiles": "CS(=O)(=O)c1ccc(C(=O)C2C(=O)CCCC2=O)c(Cl)c1CNOCc1ccccc1", "note": "[Example 199]", "logP": "(I-2) logP = 3.04^a)"}, {"smiles": "CCn1ncc(C(=O)c2ccc(S(C)(=O)=O)c(CNOCc3ccccc3)c2Cl)c1O", "note": "[Example 200]", "logP": "(I-2) logP = 2.31^a)"}, {"smiles": "CON(Cc1cccnc1)Cc1c(S(C)(=O)=O)ccc(C(=O)C2C(=O)CCCC2=O)c1Cl", "note": "[Example 216]", "logP": "(I-2) logP = 1.47^a)"}]}, {"test": "log P determination by reversed-phase HPLC (EEC Directive 79/831 Annex V.A8; acidic or neutral mobile phase)", "assay_type": "physicochemical", "settings": "HPLC reversed-phase C18, 43° C.; acidic range: 0.1% aqueous phosphoric acid, acetonitrile gradient (marked a))", "protocol": "as §1, §2, §3", "values": [{"smiles": "O=C1CCCC(=O)C1C(=O)c1ccc(Cl)c(OCCNS(=O)(=O)CCl)c1Cl", "note": "[Example 7]", "logP": "logP = 2.57^a)"}, {"smiles": "CCn1ncc(C(=O)c2ccc(Cl)c(OCCNS(=O)(=O)CCl)c2Cl)c1O", "note": "[Example 8]", "logP": "logP = 2.05^a)"}, {"smiles": "O=C1CCCC(=O)C1C(=O)c1ccc(Cl)c(OCCNS(=O)(=O)C(F)(F)F)c1Cl", "note": "[Example 9]", "logP": "logP = 3.25^a)"}, {"smiles": "CCn1ncc(C(=O)c2ccc(Cl)c(OCCNS(=O)(=O)C(F)(F)F)c2Cl)c1O", "note": "[Example 10]", "logP": "logP = 2.72^a)"}, {"smiles": "CCn1ncc(C(=O)c2ccc(S(C)(=O)=O)c(CN(C)OC)c2Cl)c1O", "note": "[Example 11]", "logP": "logP = 1.78^a)"}, {"smiles": "CCn1nc(C)c(C(=O)c2ccc(S(C)(=O)=O)c(CN(C)OC)c2Cl)c1O", "note": "[Example 12]", "logP": "logP = 1.45^a)"}, {"smiles": "CCn1ncc(C(=O)c2ccc(S(C)(=O)=O)c(OCCNS(C)(=O)=O)c2Cl)c1O", "note": "[Example 13]", "logP": "logP = 1.23^a)"}, {"smiles": "CS(=O)(=O)NCCOc1c(S(C)(=O)=O)ccc(C(=O)C2C(=O)CCCC2=O)c1Cl", "note": "[Example 14]", "logP": "logP = 1.76^a)"}, {"smiles": "CCn1ncc(C(=O)c2ccc(Br)c(OCCNS(C)(=O)=O)c2Br)c1O", "note": "[Example 17]", "logP": "logP = 1.71^a)"}, {"smiles": "CS(=O)(=O)NCCOc1c(Br)ccc(C(=O)C2C(=O)CCCC2=O)c1Br", "note": "[Example 18]", "logP": "logP = 2.23^a)"}, {"smiles": "CCS(=O)(=O)NCCOc1c(Br)ccc(C(=O)C2C(=O)CCCC2=O)c1Br", "note": "[Example 20]", "logP": "logP = 2.45^a)"}, {"smiles": "CCn1ncc(C(=O)c2ccc(Cl)c(OCCNS(=O)(=O)C(C)C)c2Cl)c1O", "note": "[Example 24]", "logP": "logP = 2.07^a)"}, {"smiles": "CC(C)S(=O)(=O)NCCOc1c(Cl)ccc(C(=O)C2C(=O)CCCC2=O)c1Cl", "note": "[Example 25]", "logP": "logP = 2.50^a)"}, {"smiles": "CCn1ncc(C(=O)c2ccc(Cl)c(OCCNS(=O)(=O)c3cccs3)c2Cl)c1O", "note": "[Example 34]", "logP": "(I-2) logP = 2.41^a)"}, {"smiles": "O=C1CCCC(=O)C1C(=O)c1ccc(Cl)c(OCCNS(=O)(=O)c2cccs2)c1Cl", "note": "[Example 35]", "logP": "(I-2) logP = 2.92^a)"}, {"smiles": "CONCc1c(Cl)ccc(C(=O)C2C(=O)CCCC2=O)c1Cl", "note": "[Example 129]", "logP": "logP = 2.33^a)"}, {"smiles": "CCn1ncc(C(=O)c2ccc(Cl)c(CNOC)c2Cl)c1O", "note": "[Example 130]", "logP": "logP = 1.68^a)"}, {"smiles": "CCONCc1c(Cl)ccc(C(=O)C2C(=O)CCCC2=O)c1Cl", "note": "[Example 133]", "logP": "logP = 2.75^a)"}, {"smiles": "CCONCc1c(Cl)ccc(C(=O)c2cnn(CC)c2O)c1Cl", "note": "[Example 134]", "logP": "logP = 2.07^a)"}, {"smiles": "CCONCc1c(S(C)(=O)=O)ccc(C(=O)c2cnn(CC)c2O)c1Cl", "note": "[Example 136]", "logP": "logP = 1.58^a)"}, {"smiles": "CON(C)Cc1c(S(C)(=O)=O)ccc(C(=O)C2C(=O)CCCC2=O)c1Cl", "note": "[Example 145]", "logP": "logP = 2.49^a)"}, {"smiles": "CCN(Cc1c(Cl)ccc(C(=O)C2C(=O)CCCC2=O)c1Cl)OC", "note": "[Example 148]", "logP": "logP = 3.63^a)"}, {"smiles": "CCN(Cc1c(S(C)(=O)=O)ccc(C(=O)c2cnn(CC)c2O)c1Cl)OC", "note": "[Example 149]", "logP": "logP = 2.16^a)"}, {"smiles": "CCN(Cc1c(S(C)(=O)=O)ccc(C(=O)C2C(=O)CCCC2=O)c1Cl)OC", "note": "[Example 150]", "logP": "logP = 2.87^a)"}, {"smiles": "CCn1ncc(C(=O)c2ccc(S(C)(=O)=O)c(CN(Cc3ccccc3)OC)c2Cl)c1O", "note": "[Example 153]", "logP": "(I-2) logP = 2.82^a)"}, {"smiles": "C=CCN(Cc1c(S(C)(=O)=O)ccc(C(=O)c2cnn(CC)c2O)c1Cl)OC", "note": "[Example 157]", "logP": "(I-2) logP = 2.29^a)"}, {"smiles": "C=CCN(Cc1c(S(C)(=O)=O)ccc(C(=O)C2C(=O)CCCC2=O)c1Cl)OC", "note": "[Example 158]", "logP": "(I-2) logP = 3.01^a)"}, {"smiles": "CCCS(=O)(=O)NCCOc1c(Cl)ccc(C(=O)c2cnn(CC)c2O)c1Cl", "note": "[Example 167]", "logP": "logP = 2.15^a)"}, {"smiles": "CCCS(=O)(=O)NCCOc1c(Cl)ccc(C(=O)C2C(=O)CCCC2=O)c1Cl", "note": "[Example 168]", "logP": "logP = 2.67^a)"}]}, {"test": "log P determination by reversed-phase HPLC (EEC Directive 79/831 Annex V.A8; acidic or neutral mobile phase)", "assay_type": "physicochemical", "settings": "HPLC reversed-phase C18, 43° C.; no a)/b) mark printed, mobile phase not given", "protocol": "as §1, §2, §3", "values": [{"smiles": "CON(C)Cc1c(Cl)ccc(C(=O)C2C(=O)CCCC2=O)c1Cl", "note": "[Example 1, 2-[2,4-dichloro-3-(N-methoxy-N-methylaminomethyl)benzoyl]-1,3-cyclohexanedione]", "logP": "logP = 3.04"}]}, {"test": "log P determination by reversed-phase HPLC (EEC Directive 79/831 Annex V.A8; acidic or neutral mobile phase)", "assay_type": "physicochemical", "settings": "HPLC, reversed-phase C18, 43° C.; acidic range a): 0.1% aqueous phosphoric acid, acetonitrile, linear gradient 10% to 90% acetonitrile", "protocol": "as §1, §2, §3", "values": [{"smiles": "Cn1ncc(C(=O)c2ccc(Cl)c(OCCNS(C)(=O)=O)c2Cl)c1O", "note": "[Example 353]", "logP": "logP = 1.36^a)"}, {"smiles": "CCn1ncc(C(=O)c2ccc(Cl)c(OCCNS(C)(=O)=O)c2Cl)c1O", "note": "[Example 354]", "logP": "logP = 1.54^a)"}, {"smiles": "CCn1nc(C)c(C(=O)c2ccc(Cl)c(OCCNS(C)(=O)=O)c2Cl)c1O", "note": "[Example 355]", "logP": "logP = 1.32^a)"}, {"smiles": "CCn1ncc(C(=O)c2ccc(Cl)c(OCCNS(=O)(=O)CC)c2C)c1O", "note": "[Example 358]", "logP": "logP = 2.03^a)"}, {"smiles": "CCS(=O)(=O)NCCOc1c(Cl)ccc(C(=O)C2C(=O)CCCC2=O)c1C", "note": "[Example 359]", "logP": "logP = 2.33^a)"}, {"smiles": "CCn1ncc(C(=O)c2ccc(Cl)c(OCCNS(C)(=O)=O)c2C)c1O", "note": "[Example 360]", "logP": "logP = 1.82^a)"}, {"smiles": "Cc1c(C(=O)C2C(=O)CCCC2=O)ccc(Cl)c1OCCNS(C)(=O)=O", "note": "[Example 361]", "logP": "logP = 2.13^a)"}]}, {"test": "log P determination by reversed-phase HPLC (EEC Directive 79/831 Annex V.A8; acidic or neutral mobile phase)", "assay_type": "physicochemical", "settings": "HPLC, reversed-phase C 18, 43° C.; mobile phase range not marked", "protocol": "as §1, §2, §3", "values": [{"smiles": "CCn1ncc(C(=O)c2ccc(S(C)(=O)=O)c(CNOC)c2Cl)c1O", "note": "[Example 299]", "logP (HPLC, mobile phase not marked)": 1.20}, {"smiles": "CON(C)Cc1c(S(C)(=O)=O)ccc(C(=O)C2C(=O)CCCC2=O)c1Cl", "note": "[Example 303]", "logP (HPLC, mobile phase not marked)": "(I-2) 2.49"}, {"smiles": "CCn1ncc(C(=O)c2ccc(S(C)(=O)=O)c(CN(C)OC)c2Cl)c1O", "note": "[Example 304]", "logP (HPLC, mobile phase not marked)": 1.78}, {"smiles": "CCn1nc(C)c(C(=O)c2ccc(S(C)(=O)=O)c(CN(C)OC)c2Cl)c1O", "note": "[Example 307]", "logP (HPLC, mobile phase not marked)": 1.45}, {"smiles": "CCN(Cc1c(S(C)(=O)=O)ccc(C(=O)C2C(=O)CCCC2=O)c1Cl)OC", "note": "[Example 308]", "logP (HPLC, mobile phase not marked)": "(I-2) 2.87"}, {"smiles": "CCN(Cc1c(S(C)(=O)=O)ccc(C(=O)c2cnn(CC)c2O)c1Cl)OC", "note": "[Example 309]", "logP (HPLC, mobile phase not marked)": 2.16}, {"smiles": "CCN(Cc1c(S(C)(=O)=O)ccc(C(=O)c2cnn(C)c2O)c1Cl)OC", "note": "[Example 310]", "logP (HPLC, mobile phase not marked)": 1.84}, {"smiles": "CCn1ncc(C(=O)c2ccc(S(C)(=O)=O)c(CN(Cc3ccccc3)OC)c2Cl)c1O", "note": "[Example 334]", "logP (HPLC, mobile phase not marked)": 2.82}, {"smiles": "CON(Cc1ccccc1)Cc1c(S(C)(=O)=O)ccc(C(=O)c2cnn(C)c2O)c1Cl", "note": "[Example 335]", "logP (HPLC, mobile phase not marked)": 2.48}, {"smiles": "CON(Cc1c(S(C)(=O)=O)ccc(C(=O)C2C(=O)CCCC2=O)c1Cl)C(C)C", "note": "[Example 343]", "logP (HPLC, mobile phase not marked)": "(I-2) 3.26"}, {"smiles": "CCn1ncc(C(=O)c2ccc(S(C)(=O)=O)c(CN(OC)C(C)C)c2Cl)c1O", "note": "[Example 344]", "logP (HPLC, mobile phase not marked)": 2.52}, {"smiles": "CON(Cc1c(S(C)(=O)=O)ccc(C(=O)c2cnn(C)c2O)c1Cl)C(C)C", "note": "[Example 345]", "logP (HPLC, mobile phase not marked)": 2.16}, {"smiles": "CS(=O)(=O)c1ccc(C(=O)C2C(=O)CCCC2=O)c(Cl)c1CNOCc1ccccc1", "note": "[Example 348]", "logP (HPLC, mobile phase not marked)": "(I-2) 3.04"}, {"smiles": "CCn1ncc(C(=O)c2ccc(S(C)(=O)=O)c(CNOCc3ccccc3)c2Cl)c1O", "note": "[Example 349]", "logP (HPLC, mobile phase not marked)": 2.31}]}, {"test": "log P determination by reversed-phase HPLC (EEC Directive 79/831 Annex V.A8; acidic or neutral mobile phase)", "assay_type": "physicochemical", "settings": "reversed-phase C18 HPLC column; HPLC, reversed-phase C 18, 43° C.; mobile phase range not marked; read-out: log P", "protocol": "as §1, §2, §3", "values": [{"smiles": "CON(C)Cc1c(Cl)ccc(C(=O)C2C(=O)CCCC2=O)c1Cl", "note": "[Example 1, 2-[2,4-dichloro-3-(N-methoxy-N-methylaminomethyl)benzoyl]-1,3-cyclohexanedione]", "chromatographic logP": 3.04}]}]}
